Experimental data from US20090291971A1, “HETEROARYL ETHERS AND PROCESSES FOR THEIR PREPARATION” (Wyeth, priority 2007, published 2009).
pIC50: −log10 of the molar value.

Legend:
Assay type in all cases: biochemical
PI3K alpha = PI3K alpha (Homo sapiens, UniProt P42336); experiment: PI3 Kinase Assay (PI3K alpha)
Protocol: (§1) PI3-Kinase reactions were performed in […], pH 7, […], and 25 μM ATP, with diC8-PI(4,5)P2 (Echelon, Salt Lake City Utah) as substrate. Nunc 384 well black polypropylene fluorescent plates were used for PI3K assays. Reactions were quenched by the addition of EDTA to a final concentration of […]. Final reaction volumes were […]. For evaluation of PI 3-K inhibitors, 5 ng of enzyme and 2.5 μM of substrate was used per […] reaction volume, and inhibitor concentrations ranged from 100 μM to […]; the final level of DMSO in reactions never exceeded 2%. Reactions were allowed to proceed for one hour at 25° C. After 1 hour, GST-tagged GRP1 (general receptor for phosphoinositides) PH domain fusion protein was added to a final concentration of 100 nM, and BODIPY-TMRI(1,3,4,5)P4 (Echelon) was also added to a final concentration of 5 nM. Final sample volumes were 25 μl with a final DMSO concentration of 0.8%. Assay Plates were read on Perkin-Elmer Envision plate readers with appropriate filters for Tamra [BODIPY-TMRI(1,3,4,5)P4]. Data obtained were used to calculate enzymatic activity and enzyme inhibition by inhibitor compounds.

Flag-IKKβ = biological target: T1, Flag-IKKβ (Homo sapiens, UniProt O14920); experiment: IKK Kinase Assay (LANCE)
T1 construct: made in house; host or cells: SF9 insect cells (baculovirus)
T1 sequence (O14920 1-756): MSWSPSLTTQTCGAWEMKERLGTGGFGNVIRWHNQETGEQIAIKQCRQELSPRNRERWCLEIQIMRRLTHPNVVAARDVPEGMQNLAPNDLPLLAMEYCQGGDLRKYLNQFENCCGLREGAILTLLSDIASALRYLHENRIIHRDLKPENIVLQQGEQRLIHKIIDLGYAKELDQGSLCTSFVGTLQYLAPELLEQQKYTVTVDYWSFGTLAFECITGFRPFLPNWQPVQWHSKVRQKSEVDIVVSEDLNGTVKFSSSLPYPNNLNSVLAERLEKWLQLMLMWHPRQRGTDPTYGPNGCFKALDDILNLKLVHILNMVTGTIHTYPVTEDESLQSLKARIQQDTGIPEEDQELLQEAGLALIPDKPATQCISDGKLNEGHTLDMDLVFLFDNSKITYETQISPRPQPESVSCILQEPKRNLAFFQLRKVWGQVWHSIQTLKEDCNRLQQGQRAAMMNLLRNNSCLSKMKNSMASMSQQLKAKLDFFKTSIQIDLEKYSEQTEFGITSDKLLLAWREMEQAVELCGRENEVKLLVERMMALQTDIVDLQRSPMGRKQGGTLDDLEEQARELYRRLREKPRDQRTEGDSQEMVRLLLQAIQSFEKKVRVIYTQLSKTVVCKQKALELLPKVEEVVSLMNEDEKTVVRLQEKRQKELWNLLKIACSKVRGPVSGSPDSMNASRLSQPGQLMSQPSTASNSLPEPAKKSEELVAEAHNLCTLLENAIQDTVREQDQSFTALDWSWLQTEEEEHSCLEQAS
Text: Human IKKβ cDNA is amplified by reverse transcriptase-polymerase chain reaction from human placental RNA (CLONTECH) using primers that incorporated the FLAG-epitope at the C terminus of IKKβ. FLAG-IKKβ is inserted into the baculovirus expression plasmid pFASTBAC (Life Technologies). Following the manufacturer's protocol for the BAC-TO-BAC (Life Technologies) Baculovirus Expression System, recombinant baculoviruses expressing the IKKβ enzyme are made. Briefly, 9×10^5 SF9 cells per well of a 6-well plate are transfected with one μg of miniprep bacmid DNA using the CellFECTIN™ reagent. Virus is harvested 72 hours post transfection, and a viral titer is performed, after which a high titer viral stock (2×10^8 pfu/ml) is amplified by three to four rounds of infection. […]
Purified Flag-IKKβ enzyme (2 nM final concentration) is typically used in the kinase reaction buffer described above supplemented with 0.0025% Brij solution (Sigma) to help stabilize the enzyme. […] 25 μL of 20 mM EDTA is added to terminate the reactions and then 100 μL of detection mixture [0.25 nM Europium labeled anti-phospho-IκBα (prepared by Wallac) and 0.25 μg/mL final concentration streptavidin-APC, Wallac] is added 30 minutes before reading the plates in a Wallac VICTOR plate reader. […]

PI3K gamma = PI3K gamma (Homo sapiens, UniProt P48736); experiment: PI3 Kinase Assay (PI3K gamma); settings: 1 h
Protocol: as §1

[1] = biological target: T2, human PKCθ full length enzyme (Homo sapiens, UniProt Q04759); experiment: PKC Theta IMAP Assay
T2 construct: human PKCθ full length enzyme; purchased Panvera P2996
Protocol: The materials used include the following: human PKCθ full length enzyme (Panvera Cat#P2996); substrate peptide: 5FAM-RFARKGSLRQKNV-OH (Molecular Devices, RP7032); ATP (Sigma Cat #A2383); DTT (Pierce, 20291); 5× kinase reaction buffer (Molecular Devices, R7209); 5× binding buffer A (Molecular Devices, R7282), 5× binding buffer B (Molecular Devices, R7209); IMAP Beads (Molecular Devices, R7284); and 384-well plates (Corning Costar, 3710).
The reaction buffer was prepared by diluting the 5× stock reaction buffer and adding DTT to obtain a concentration of 3.0 mM. The binding buffer was prepared by diluting the 5× binding buffer A. A master mix solution was prepared using a 90% dilution of the reaction buffer containing 2×ATP (12 uM) and 2× peptide (200 nm). Compounds were diluted in DMSO to 20× of the maximum concentration for the IC50 measurement. 27 μl of the master mix solution for each IC50 curve was added to the first column in a 384-well plate and 3 μl of 20× compound in DMSO was added to each well. The final concentration of compound was 2× and 10% DMSO. DMSO was added to the rest of the master mix to increase the concentration to 10%. 10 μl of the master mix containing 10% DMSO was added to the rest of the wells on the plate except the 2nd column. 20 μl was transferred from the first column to the 2nd column. […] FP was measured using Envision2100 (PerkinElmer Life Sciences). […]

human TOR (FLAG-TOR) = biological target: T3, human TOR (FLAG-TOR) (Homo sapiens, UniProt P42345); experiment: mTOR Enzyme Assay (DELFIA)
T3 construct: FLAG
Protocol: The routine human TOR assays with purified enzyme were performed in 96-well plates by DELFIA format as follows. Enzymes were first diluted in kinase assay buffer (10 mM Hepes (pH 7.4), 50 mM NaCl, 50 mM β-glycerophosphate, 10 mM MnCl2, 0.5 mM DTT, 0.25 μM microcystin LR, and 100 μg/mL BSA). To each well, 12 μL of the diluted enzyme were mixed briefly with 0.5 μL test inhibitor or control vehicle dimethylsulfoxide (DMSO). The kinase reaction was initiated by adding 12.5 μL kinase assay buffer containing ATP and His6-S6K to give a final reaction volume of 25 μL containing 800 ng/mL FLAG-TOR, 100 μM ATP and 1.25 μM His6-S6K. The reaction plate was incubated for 2 hours (linear at 1-6 hours) at room temperature with gentle shaking and then terminated by adding 25 μL Stop buffer (20 mM Hepes (pH 7.4), 20 mM EDTA, 20 mM EGTA). The DELFIA detection of the phosphorylated (Thr-389) His6-S6K was performed at room temperature using a monoclonal anti-P(T389)-p70S6K antibody (1A5, Cell Signaling) labeled with Europium-N-1-ITC (Eu) (10.4 Eu per antibody, PerkinElmer). The DELFIA Assay buffer and Enhancement solution were purchased from PerkinElmer. 45 μL of the terminated kinase reaction mixture was transferred to a MaxiSorp plate (Nunc) containing 55 μL PBS. […] L of DELFIA Enhancement solution was added to each well and the plates were read in a PerkinElmer Victor model plate reader. […]

Sequence of PI3K alpha (P42336 whole entry, species assumed, the tested form may be a part): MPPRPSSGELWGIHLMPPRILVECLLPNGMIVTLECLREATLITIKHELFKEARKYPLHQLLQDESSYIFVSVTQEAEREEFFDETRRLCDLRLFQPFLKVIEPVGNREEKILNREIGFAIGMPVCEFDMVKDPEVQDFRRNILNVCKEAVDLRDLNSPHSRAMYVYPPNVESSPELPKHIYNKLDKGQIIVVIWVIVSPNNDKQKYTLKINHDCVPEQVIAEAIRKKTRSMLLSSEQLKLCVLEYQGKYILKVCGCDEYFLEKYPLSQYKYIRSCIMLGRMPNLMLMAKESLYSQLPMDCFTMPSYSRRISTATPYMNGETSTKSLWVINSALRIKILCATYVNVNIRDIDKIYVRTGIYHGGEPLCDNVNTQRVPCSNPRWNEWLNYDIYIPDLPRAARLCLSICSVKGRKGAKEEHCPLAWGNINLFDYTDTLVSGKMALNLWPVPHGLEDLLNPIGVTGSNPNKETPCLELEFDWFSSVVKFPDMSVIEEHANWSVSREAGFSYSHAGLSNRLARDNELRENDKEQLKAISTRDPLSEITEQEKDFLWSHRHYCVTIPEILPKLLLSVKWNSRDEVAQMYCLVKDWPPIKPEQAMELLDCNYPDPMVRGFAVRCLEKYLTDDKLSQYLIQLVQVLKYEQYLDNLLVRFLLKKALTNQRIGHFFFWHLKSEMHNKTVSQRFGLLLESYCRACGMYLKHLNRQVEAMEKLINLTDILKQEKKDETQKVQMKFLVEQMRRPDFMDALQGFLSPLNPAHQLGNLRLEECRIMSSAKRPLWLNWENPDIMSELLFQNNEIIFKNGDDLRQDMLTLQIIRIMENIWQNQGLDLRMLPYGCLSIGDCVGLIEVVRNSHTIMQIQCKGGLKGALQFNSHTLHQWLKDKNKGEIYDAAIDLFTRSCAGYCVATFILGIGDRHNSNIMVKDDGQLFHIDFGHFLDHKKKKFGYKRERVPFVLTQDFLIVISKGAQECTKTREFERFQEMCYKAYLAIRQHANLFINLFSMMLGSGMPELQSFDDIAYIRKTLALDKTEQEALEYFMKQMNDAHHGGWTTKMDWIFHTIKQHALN
Sequence of PI3K alpha (P27986 whole entry partner, species assumed, the tested form may be a part): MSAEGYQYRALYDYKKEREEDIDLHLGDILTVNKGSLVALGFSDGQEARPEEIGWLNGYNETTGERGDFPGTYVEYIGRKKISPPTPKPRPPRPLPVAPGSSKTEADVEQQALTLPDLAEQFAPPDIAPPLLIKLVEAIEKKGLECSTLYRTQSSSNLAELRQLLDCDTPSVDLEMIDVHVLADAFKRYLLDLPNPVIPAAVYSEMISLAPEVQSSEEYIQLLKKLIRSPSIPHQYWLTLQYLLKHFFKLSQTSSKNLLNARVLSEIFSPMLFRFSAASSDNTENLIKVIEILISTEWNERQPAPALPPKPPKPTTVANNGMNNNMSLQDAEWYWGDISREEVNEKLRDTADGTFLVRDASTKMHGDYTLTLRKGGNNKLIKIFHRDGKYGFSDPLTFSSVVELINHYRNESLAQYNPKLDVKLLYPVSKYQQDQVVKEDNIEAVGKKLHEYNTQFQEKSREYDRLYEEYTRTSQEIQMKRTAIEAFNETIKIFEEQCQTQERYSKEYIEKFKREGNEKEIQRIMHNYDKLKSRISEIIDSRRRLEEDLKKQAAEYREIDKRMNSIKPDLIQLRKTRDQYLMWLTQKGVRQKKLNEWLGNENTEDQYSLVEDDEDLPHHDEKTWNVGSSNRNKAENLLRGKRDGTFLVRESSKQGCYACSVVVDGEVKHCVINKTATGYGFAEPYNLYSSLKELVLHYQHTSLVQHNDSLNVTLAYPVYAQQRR
Sequence of PI3K gamma (P48736 whole entry, species assumed): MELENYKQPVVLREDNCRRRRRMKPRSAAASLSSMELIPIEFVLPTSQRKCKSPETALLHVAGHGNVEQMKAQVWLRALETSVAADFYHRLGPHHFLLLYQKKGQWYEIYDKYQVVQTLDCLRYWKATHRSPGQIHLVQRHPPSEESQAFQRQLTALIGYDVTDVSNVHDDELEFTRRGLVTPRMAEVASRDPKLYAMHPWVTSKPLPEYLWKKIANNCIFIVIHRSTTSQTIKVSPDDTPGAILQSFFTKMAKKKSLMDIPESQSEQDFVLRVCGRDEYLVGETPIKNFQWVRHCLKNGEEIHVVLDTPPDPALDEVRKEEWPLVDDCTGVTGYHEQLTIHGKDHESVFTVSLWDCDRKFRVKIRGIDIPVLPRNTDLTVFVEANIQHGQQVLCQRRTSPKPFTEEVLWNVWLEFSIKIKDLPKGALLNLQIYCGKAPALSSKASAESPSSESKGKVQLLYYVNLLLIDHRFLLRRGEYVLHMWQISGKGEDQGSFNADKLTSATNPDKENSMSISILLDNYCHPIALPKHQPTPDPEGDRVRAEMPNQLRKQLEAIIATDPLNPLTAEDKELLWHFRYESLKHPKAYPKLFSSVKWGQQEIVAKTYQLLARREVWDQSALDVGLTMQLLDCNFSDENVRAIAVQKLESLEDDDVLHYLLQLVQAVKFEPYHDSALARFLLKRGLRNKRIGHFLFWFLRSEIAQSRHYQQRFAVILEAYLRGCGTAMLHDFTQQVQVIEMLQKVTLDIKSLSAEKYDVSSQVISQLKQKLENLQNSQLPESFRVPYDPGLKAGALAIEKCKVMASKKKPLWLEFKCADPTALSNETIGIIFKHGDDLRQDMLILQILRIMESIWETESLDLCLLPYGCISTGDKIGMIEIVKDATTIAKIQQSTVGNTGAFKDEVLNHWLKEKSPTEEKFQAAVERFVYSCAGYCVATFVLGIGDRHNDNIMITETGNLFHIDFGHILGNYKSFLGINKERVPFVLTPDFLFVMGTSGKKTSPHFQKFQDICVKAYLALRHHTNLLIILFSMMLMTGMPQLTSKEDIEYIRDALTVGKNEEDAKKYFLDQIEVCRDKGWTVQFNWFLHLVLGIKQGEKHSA
T2 sequence (Q04759 whole entry): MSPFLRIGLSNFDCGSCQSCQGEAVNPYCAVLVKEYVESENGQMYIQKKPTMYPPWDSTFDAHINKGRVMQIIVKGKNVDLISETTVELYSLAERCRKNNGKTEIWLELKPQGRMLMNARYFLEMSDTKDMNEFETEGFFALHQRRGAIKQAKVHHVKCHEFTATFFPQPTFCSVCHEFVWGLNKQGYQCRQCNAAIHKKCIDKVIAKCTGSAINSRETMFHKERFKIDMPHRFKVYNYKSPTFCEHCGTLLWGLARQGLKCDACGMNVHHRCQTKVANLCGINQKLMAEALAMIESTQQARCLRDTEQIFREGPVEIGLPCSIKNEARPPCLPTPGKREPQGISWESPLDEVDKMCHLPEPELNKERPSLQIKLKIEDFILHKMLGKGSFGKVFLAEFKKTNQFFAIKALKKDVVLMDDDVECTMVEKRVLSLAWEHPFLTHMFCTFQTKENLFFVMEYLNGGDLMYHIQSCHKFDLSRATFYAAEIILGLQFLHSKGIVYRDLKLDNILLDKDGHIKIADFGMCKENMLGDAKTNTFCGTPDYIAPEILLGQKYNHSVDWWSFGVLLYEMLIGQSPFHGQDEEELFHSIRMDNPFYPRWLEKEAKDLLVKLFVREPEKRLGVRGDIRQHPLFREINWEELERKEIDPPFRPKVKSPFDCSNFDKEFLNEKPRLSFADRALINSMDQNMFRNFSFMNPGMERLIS

Row | inhibition at 30 µM (PI3K alpha) [%] | inhibition at 30 µM (Flag-IKKβ) [%] | inhibition at 30 µM (PI3K gamma) [%] | pIC50 [1] | inhibition at 10 µM (human TOR (FLAG-TOR)) [%] | Structure (SMILES)
1 | 56 | 51 | 12 | 4.59 |  | Cc1noc(C)c1Oc1ncnc2ccccc12 [Example 26, 3,5-Dimethyl-4-(quinazolin-4-yloxy)isoxazole]
2 | 33 |  | 53 |  | 12 | c1ccc2c(Oc3cncnc3)ncnc2c1 [Example 31, 4-(Pyrimidin-5-yloxy)quinazoline]
